Among the data in patent publication US9006228B2 (Merck Sharp & Dohme Corp., priority 2011, dated 2015) are EC50 values, retold here.

The target of this assay is T1, human GPR119 (Homo sapiens, UniProt Q8TDV5).
T1 sequence (Q8TDV5 1-308 limits assumed): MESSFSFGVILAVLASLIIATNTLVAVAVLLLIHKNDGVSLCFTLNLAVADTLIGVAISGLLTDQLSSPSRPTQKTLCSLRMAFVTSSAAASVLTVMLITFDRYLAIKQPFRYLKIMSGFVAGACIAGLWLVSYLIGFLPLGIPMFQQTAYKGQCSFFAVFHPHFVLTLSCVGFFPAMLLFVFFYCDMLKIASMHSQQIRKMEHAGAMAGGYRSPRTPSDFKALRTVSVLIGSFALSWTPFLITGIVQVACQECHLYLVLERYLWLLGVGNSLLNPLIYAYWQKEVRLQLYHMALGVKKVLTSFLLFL
The assay can be described thus: Measurement of GPR119 signaling (cAMP assay; LANCE kit or HTRF) in HEK293 cells stably transfected with human GPR119. The assay is classed as cell-based. The following applies: agonist-stimulated cAMP in HEK293 cells expressing human GPR119. As to the method: Measurement of GPR119 Signaling Using LANCE 384-Well cAMP Kit
The adenylate cyclase assay was constructed following the LANCE™ cAMP Kit (Perkin Elmer, AD0264) instructions. […] The reaction was stopped by incubating with the supplied detection buffer containing the europium chelate of the Eu-SA/Biotin-cAMP tracer for 3 hours. The assay was performed in duplicate in a 384 well plate for duplicate plates. Fluorescence at 665 nm was measured using a PHERAstar instrument. Basal activity was determined using a DMSO control and maximum response was defined as cAMP stimulation produced by an internal agonist control. Standard cAMP concentrations were assayed concurrently for conversion of fluorescence signal to cAMP level. The data was analyzed using 4-parameter curve fit in Microsoft Excel.
Measurement of GPR119 Signaling Using a Cyclic AMP (cAMP) Homogenous Time Resolved Fluorescence (HTRF) Assay
Chinese hamster ovary (CHO) cell lines stably transfected with the permissive guanine nucleotide binding protein alpha 15 (Gα15) and murine GPR119 were maintained in DMEM media containing FBS, penicillin-streptomycin, puromycin, and G418 (geneticin). […] Agonist activation of the GPR119 receptor was measured in receptor transfected cells described above, treated with compounds of this invention, using a commercial homogenous time resolved fluorescence (HTRF) kit for measurement of cAMP (CisBio, Bedford, Mass.). The assay was performed in 96-well half-volume plates (murine) or 384-well plates (human) following the manufacturers instructions. Briefly, suspended cells were incubated with a dose titration of test compound at RT for 60 min, lysed, and incubated with HTRF reagents for an additional 60 min. The plate was read using an Envision multilabel reader (Perkin Elmer) adjusted to read time resolved fluorescence and the cAMP concentrations were extrapolated from a cAMP calibration curve. […] The concentration of test compound required to stimulate a half-maximal response (EC50), and efficacy as compared to an internal agonist control, was determined from a sigmoidal 4-parameter curve fit of the resulting plot of normalized activity versus compound concentration.
For orientation: cAMP levels reflect the balance of adenylyl cyclase and phosphodiesterase activity.
Broadly, the EC50 is the concentration needed to bring the measured effect to its halfway point. As to `CCCc1cnc(N2CCC([C@H]3C[C@H]3COCc3ccc(S(C)(=O)=O)cc3)CC2)nc1` [Example 22, 2-{4-[(1R,2R)-2-({[4-(methylsulfonyl)benzyl]oxy}methyl)cyclopropyl]piperidin-1-yl}-5-propylpyrimidine], the EC50 turned out to be 0.3 nM.

With `CC(C)c1cnc(N2CCC([C@H]3C[C@H]3COCc3ccc(S(C)(=O)=O)cc3)CC2)nc1` [Example 23, 5-isopropyl-2-{4-[(1R,2R)-2-({[4-(methylsulfonyl)benzyl]oxy}methyl)cyclopropyl]piperidin-1-yl}pyrimidine], the EC50 came out at 0.26 nM.

Compound `CC(C)c1noc(N2CCC([C@H]3C[C@H]3COCc3ccc(S(C)(=O)=O)cc3)CC2)n1` [Example 24, 1-(3-isopropyl-1,2,4-oxadiazol-5-yl)-4-[(1R,2R)-2-({[4-(methylsulfonyl)benzyl]oxy}methyl)cyclopropyl]piperidine] gave an EC50 of 0.92 nM.

As for `CC(C)c1noc(N2CCC([C@H]3C[C@H]3COCc3ccc(S(=O)(=O)C4CC4)cc3)CC2)n1` [Example 25], it took 18 nM to reach a half-maximal effect (EC50).

In the case of `CCS(=O)(=O)c1ccc(COC[C@@H]2C[C@@H]2C2CCN(c3nc(C(C)C)no3)CC2)cc1` [Example 26, 4-[(1R,2R)-2-({[4-(ethylsulfonyl)benzyl]oxy}methyl)cyclopropyl]-1-(3-isopropyl-1,2,4-oxadiazol-5-yl)piperidine], the EC50 was determined as 3.1 nM.

`CS(=O)(=O)c1ccc(COC[C@@H]2C[C@@H]2C2CCN(c3nc(C4CC4)no3)CC2)cc1` [Example 27, 1-(3-cyclopropyl-1,2,4-oxadiazol-5-yl)-4-[(1R,2R)-2-({[4-(methylsulfonyl)benzyl]oxy}methyl)cyclopropyl]piperidine] displayed an EC50 of 3.2 nM.

`O=S(=O)(c1ccc(COC[C@@H]2C[C@@H]2C2CCN(c3nc(C4CC4)no3)CC2)cc1)C1CC1` [Example 28, 1-(3-cyclopropyl-1,2,4-oxadiazol-5-yl)-4-[(1R,2R)-2-({[4-(cyclopropylsulfonyl)benzyl]oxy}methyl)cyclopropyl]piperidine] had an EC50 of 12 nM.

In turn, `CCS(=O)(=O)c1ccc(COC[C@@H]2C[C@@H]2C2CCN(c3nc(C4CC4)no3)CC2)cc1` [Example 29, 1-(3-cyclopropyl-1,2,4-oxadiazol-5-yl)-4-[(1R,2R)-2-({[4-(ethylsulfonyl)benzyl]oxy}methyl)cyclopropyl]piperidine] gave an EC50 of 2.3 nM.

The compound `CCc1noc(N2CCC([C@H]3C[C@H]3COCc3ccc(S(C)(=O)=O)cc3)CC2)n1` [Example 30, 1-(3-ethyl-1,2,4-oxadiazol-5-yl)-4-[(1R,2R)-2-({[4-(methylsulfonyl)benzyl]oxy}methyl)cyclopropyl]piperidine] yielded an EC50 of 2.8 nM.

For `O=S(=O)(c1ccc(COC[C@@H]2C[C@@H]2C2CCN(c3nc(C4CCC4)no3)CC2)cc1)C1CC1` [Example 31, 1-(3-cyclobutyl-1,2,4-oxadiazol-5-yl)-4-[(1R,2R)-2-({[4-(cyclopropylsulfonyl)benzyl]oxy}methyl)cyclopropyl]piperidine], the midpoint of the response, the EC50, lay at 7 nM.

`CCS(=O)(=O)c1ccc(COC[C@@H]2C[C@@H]2C2CCN(c3nc(C4CCC4)no3)CC2)cc1` [Example 32, 1-(3-cyclobutyl-1,2,4-oxadiazol-5-yl)-4-[(1R,2R)-2-({[4-(ethylsulfonyl)benzyl]oxy}methyl)cyclopropyl]piperidine] came in with an EC50 of 0.8 nM.

Take `CC(C)(C)OC(=O)N1CCC([C@H]2C[C@H]2COCc2ccc(S(C)(=O)=O)c(F)c2)CC1` [Example 33, tert-butyl 4-[(1R,2R)-2-({[3-fluoro-4-(methylsulfonyl)benzyl]oxy}methyl)cyclopropyl]piperidine-1-carboxylate]: the EC50 was 1.1 nM.

For the compound `CCS(=O)(=O)c1ccc(COC[C@@H]2C[C@@H]2C2CCN(C(=O)OC(C)(C)C)CC2)cc1F` [Example 34, tert-butyl 4-[(1R,2R)-2-({[4-(ethylsulfonyl)-3-fluorobenzyl]oxy}methyl)cyclopropyl]piperidine-1-carboxylate], it took 0.1 nM to reach a half-maximal effect (EC50).

For `CC(C)c1noc(N2CCC([C@H]3C[C@H]3COCc3ccc(S(C)(=O)=O)c(F)c3)CC2)n1` [Example 35, 4-[(1R,2R)-2-({[3-fluoro-4-(methylsulfonyl)benzyl]oxy}methyl)cyclopropyl]-1-(3-isopropyl-1,2,4-oxadiazol-5-yl)piperidine], the EC50 was determined as 0.2 nM.

In turn, `CCc1noc(N2CCC([C@H]3C[C@H]3COCc3ccc(S(C)(=O)=O)c(F)c3)CC2)n1` [Example 36, 1-(3-ethyl-1,2,4-oxadiazol-5-yl)-4-[(1R,2R)-2-({[3-fluoro-4-(methylsulfonyl)benzyl]oxy}methyl)cyclopropyl]piperidine] had an EC50 of 1.9 nM.

`CS(=O)(=O)c1ccc(COC[C@@H]2C[C@@H]2C2CCN(c3nc(C4CC4)no3)CC2)cc1F` [Example 37, 1-(3-cyclopropyl-1,2,4-oxadiazol-5-yl)-4-[(1R,2R)-2-({[3-fluoro-4-(methylsulfonyl)benzyl]oxy}methyl)cyclopropyl]piperidine] came in with an EC50 of 0.6 nM.

Consider `CCS(=O)(=O)c1ccc(COC[C@@H]2C[C@@H]2C2CCN(c3nc(C(C)C)no3)CC2)cc1F` [Example 38, 4-[(1R,2R)-2-({[3-fluoro-4-(ethylsulfonyl)benzyl]oxy}methyl)cyclopropyl]-1-(3-isopropyl-1,2,4-oxadiazol-5-yl)piperidine], for which the EC50 stood at 0.4 nM.

With `CCS(=O)(=O)c1ccc(COC[C@@H]2C[C@@H]2C2CCN(c3nc(C4CC4)no3)CC2)cc1F` [Example 39, 1-(3-cyclopropyl-1,2,4-oxadiazol-5-yl)-4-[(1R,2R)-2-({[3-fluoro-4-(ethylsulfonyl)benzyl]oxy}methyl)cyclopropyl]piperidine], the EC50 worked out at 0.6 nM.

In turn, `CCc1cnc(N2CCC([C@H]3C[C@H]3COCc3ccc(S(C)(=O)=O)c(F)c3)CC2)nc1` [Example 40, 5-ethyl-2-{4-[(1R,2R)-2-({[3-fluoro-4-(methylsulfonyl)benzyl]oxy}methyl)cyclopropyl]piperidin-1-yl}pyrimidine] gave an EC50 of 0.2 nM.

Consider `CS(=O)(=O)c1ccc(COC[C@@H]2C[C@@H]2C2CCN(c3ncc(Cl)cn3)CC2)cc1F` [Example 41, 5-chloro-2-{4-[(1R,2R)-2-({[3-fluoro-4-(methylsulfonyl)benzyl]oxy}methyl)cyclopropyl]piperidin-1-yl}pyrimidine], for which the EC50 stood at 0.4 nM.

In turn, `CC(C)OC(=O)N1CCC([C@H]2C[C@H]2COCc2ccc(S(C)(=O)=O)c(F)c2)CC1` [Example 42, isopropyl 4-[(1R,2R)-2-({[3-fluoro-4-(methylsulfonyl)benzyl]oxy}methyl)cyclopropyl]piperidine-1-carboxylate] returned a concentration giving a half-maximal response (EC50) of 8.5 nM.

For the compound `CC1(OC(=O)N2CCC([C@H]3C[C@H]3COCc3ccc(S(C)(=O)=O)c(F)c3)CC2)CC1` [Example 43, 1-methylcyclopropyl 4-[(1R,2R)-2-({[3-fluoro-4-(methylsulfonyl)benzyl]oxy}methyl)cyclopropyl] piperidine-1-carboxylate], the EC50 turned out to be 4.7 nM.

Take `CC(C)(C)OC(=O)N1CCC([C@H]2C[C@H]2COCc2cc(F)c(S(C)(=O)=O)c(F)c2)CC1` [Example 44, tert-butyl 4-[(1R,2R)-2-({[3,5-difluoro-4-(methylsulfonyl)benzyl]oxy}methyl)cyclopropyl]piperidine-1-carboxylate]: the midpoint of the response, the EC50, lay at 14.8 nM.

`CS(=O)(=O)c1c(F)cc(COC[C@@H]2C[C@@H]2C2CCN(c3ncc(Cl)cn3)CC2)cc1F` [Example 45, 5-chloro-2-{4-[(1R,2R)-2-({[3,5-difluoro-4-(methylsulfonyl)benzyl]oxy}methyl)cyclopropyl]piperidin-1-yl}pyrimidine] had an EC50 of 0.6 nM.

With `CCc1cnc(N2CCC([C@H]3C[C@H]3COCc3cc(F)c(S(C)(=O)=O)c(F)c3)CC2)nc1` [Example 46], the EC50 came out at 0.4 nM.

For `CS(=O)(=O)c1c(F)cc(COC[C@@H]2C[C@@H]2C2CCN(c3ncc(F)cn3)CC2)cc1F` [Example 47, 2-{4-[(1R,2R)-2-({[3,5-difluoro-4-(methylsulfonyl)benzyl]oxy}methyl)cyclopropyl]piperidin-1-yl}-5-fluoropyrimidine], the EC50 stood at 3.2 nM.
